Data as given in patent US20240124503A1, “HETEROAROMATIC PHOSPHONIUM SALTS AND THEIR USE TREATING CANCER” (FLORATEK PHARMA S.A., priority 2021, published 2024).
pIC50, pKd: −log10 of the molar value.

Assays:
[1] = molecular target: T1, TIE2 (Homo sapiens, UniProt Q02763); experiment: KINOMEscan competition binding, TIE2
T1 construct: purchased Eurofins (KINOMEscan); host or cells: E. coli BL21-derived host (T7 phage) or HEK-293
Procedure: Selected compounds were screened for kinase inhibition using the KINOMEscan™ assay (Eurofins) which is based on a competition binding assay that quantitatively measures the ability of a compound to compete with an immobilized, active-site directed ligand. The assay was performed by combining three components: DNA-tagged kinase; immobilized ligand; and the test compound. The ability of the test compound to compete with the immobilized ligand was measured via quantitative PCR of the DNA tag.
Kinase-tagged T7 phage strains were prepared in an E. coli host derived from the BL21 strain. E. coli were grown to log-phase and infected with T7 phage and incubated with shaking at 32° C. until lysis. The lysates were centrifuged and filtered to remove cell debris. The remaining kinases were produced in HEK-293 cells and subsequently tagged with DNA for qPCR detection. Streptavidin-coated magnetic beads were treated with biotinylated small molecule ligands for 30 minutes at room temperature to generate affinity resins for kinase assays. […] Kds were determined using an 11-point 3-fold compound dilution series with three DMSO control points. […] The kinase concentration in the eluates was measured by qPCR. […]
Binding constants (Kds) were calculated with a standard dose-response curve using the Hill equation: Response=Background+[Signal−Background/1+(Kd^Hill Slope/Dose^Hill Slope)] […]

[2] = system: bile duct PDX; experiment: Cell viability, bile duct PDX (panel statement); format: cell-based; settings: summary of Table 3; read-out: IC50, bile duct PDX growth
Procedure: (§1) PDX-derived cell cultures were obtained from tumors explanted from mice and isolated by mechanical and enzymatic dissociation. […] Cells were harvested and seeded in 96-wells plates at a density of 1.25 to 5×10^3 cells/well for cytotoxicity assays. Cells were incubated 48 h at 37° C. prior to addition of test molecules and vehicle (DMSO, 0.1%) at desired final concentrations. Cell viability was assessed before drugs' addition (To) and 5 days after test molecules addition by measuring ATP cell content using CellTiter-Glo® Luminescent Cell Viability Assay (Promega) according to the manufacturer's instructions. Luciferase activity was measured on a luminometer (PerkinElmer® EnVision™). Each concentration of compounds was tested in triplicate.
(§2) Viability was calculated as a percentage of ATP value compared to vehicle treated controls.
(§3) For PDX primary cell cultures, the tumour tissue was washed with PBS containing antibiotic-antimycotic and non-tumour tissue and necrotic tumour tissues were separated. The tumour tissue was transferred to a new dish and cut into 1˜2 mm^3 fragments, resuspended in RPMI-1640 medium and centrifuged at 1,200 rpm for 6 min at room temperature. The pelleted material was resuspended with 15 mL of Tumour Cell Digestion Solution and incubated at 37° C. for 1 hour with agitation. […]

[3] = system: breast PDX; experiment: Cell viability, breast PDX (panel statement); format: cell-based; settings: Table 5; read-out: IC50, growth of breast PDX
Procedure: as §1, §2, §3

[4] = system: pancreatic PDX; experiment: Cell viability, pancreatic PDX (panel statement); format: cell-based; settings: Table 19; read-out: IC50, pancreatic PDX growth
Procedure: as §1, §2, §3

T1 sequence (Q02763 23-1124): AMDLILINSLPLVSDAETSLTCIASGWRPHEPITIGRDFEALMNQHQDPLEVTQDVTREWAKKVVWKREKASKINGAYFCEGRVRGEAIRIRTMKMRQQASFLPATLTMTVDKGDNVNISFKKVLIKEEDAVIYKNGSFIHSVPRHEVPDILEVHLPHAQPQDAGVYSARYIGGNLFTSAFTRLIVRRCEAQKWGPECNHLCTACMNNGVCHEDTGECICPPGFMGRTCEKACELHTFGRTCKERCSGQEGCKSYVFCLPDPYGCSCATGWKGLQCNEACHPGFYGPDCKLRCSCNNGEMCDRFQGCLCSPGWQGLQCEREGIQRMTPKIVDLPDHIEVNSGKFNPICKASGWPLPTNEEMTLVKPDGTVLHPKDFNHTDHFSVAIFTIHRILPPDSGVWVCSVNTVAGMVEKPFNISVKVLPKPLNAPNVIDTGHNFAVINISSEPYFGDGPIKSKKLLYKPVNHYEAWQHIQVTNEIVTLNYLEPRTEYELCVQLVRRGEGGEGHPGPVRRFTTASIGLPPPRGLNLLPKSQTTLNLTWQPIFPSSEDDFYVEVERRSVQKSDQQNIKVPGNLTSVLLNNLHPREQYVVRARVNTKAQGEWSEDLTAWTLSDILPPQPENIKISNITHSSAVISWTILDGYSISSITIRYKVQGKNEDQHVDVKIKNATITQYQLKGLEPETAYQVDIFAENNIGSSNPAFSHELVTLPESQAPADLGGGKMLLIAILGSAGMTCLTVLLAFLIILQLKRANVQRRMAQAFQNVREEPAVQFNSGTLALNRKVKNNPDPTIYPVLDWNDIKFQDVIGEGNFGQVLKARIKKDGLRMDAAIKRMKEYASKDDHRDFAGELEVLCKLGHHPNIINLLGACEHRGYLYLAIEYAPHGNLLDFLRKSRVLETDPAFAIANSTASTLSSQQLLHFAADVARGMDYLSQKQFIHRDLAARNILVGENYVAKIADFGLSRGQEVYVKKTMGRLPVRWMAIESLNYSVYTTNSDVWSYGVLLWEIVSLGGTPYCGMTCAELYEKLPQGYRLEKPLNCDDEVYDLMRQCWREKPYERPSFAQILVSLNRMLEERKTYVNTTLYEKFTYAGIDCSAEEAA

SMILES: COc1c(O)ccc2c(=O)c(O)c(-c3ccc(CCCC[P+](c4ccccc4)(c4ccccc4)c4ccccc4)cc3)oc12 [SND190, (4-(4-(3,7-Dihydroxy-8-methoxy-4-oxo-4H1-chromen-2-yl)phenyl)butyl)triphenylphosphonium bromide]
- pKd [1]: 7.40
- pIC50 [2]: > 5.00
- pIC50 [3]: > 4.70
- pIC50 [4]: > 5.00
